Test results: ChEMBL document CHEMBL1146711, “A facile synthesis of 1-ethoxy-4-cyano-5-ethoxycarbonyl-3H-azuleno[1,2-c]pyran-3-one, a selective 15-lipoxygenase inhibitor” (Bioorg Med Chem Lett, 2004)

What was measured:
[1] = target: Cyclooxygenase (Homo sapiens) (UniProt P35354+P23219); experiment: Inhibitory concentration against prostaglandin G/H synthase; No inhibition; type: protein assay
[2] = target: Protein kinase C (PKC) (Homo sapiens) (UniProt O94806+P41743+P17252+P05129+Q05655+P05771+Q05513+Q02156+P24723+Q15139+Q04759); experiment: Inhibition of protein kinase C (No inhibition); type: protein assay
[3] = target: Phospholipase A2, major isoenzyme (Sus scrofa) (UniProt P00592); experiment: Inhibitory concentration against phospholipase A2; No inhibition
Chain of Phospholipase A2, major isoenzyme (Sus scrofa) (P00592 23-146 limits assumed): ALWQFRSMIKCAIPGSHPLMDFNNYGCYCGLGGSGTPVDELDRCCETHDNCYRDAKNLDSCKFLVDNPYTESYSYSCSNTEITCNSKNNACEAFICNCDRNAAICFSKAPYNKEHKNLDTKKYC

[4] = target: T1, Polyunsaturated fatty acid 5-lipoxygenase (Homo sapiens) (UniProt P09917); experiment: Inhibitory concentration against 5-lipoxygenase was determined; No inhibition
T1 sequence (whole entry): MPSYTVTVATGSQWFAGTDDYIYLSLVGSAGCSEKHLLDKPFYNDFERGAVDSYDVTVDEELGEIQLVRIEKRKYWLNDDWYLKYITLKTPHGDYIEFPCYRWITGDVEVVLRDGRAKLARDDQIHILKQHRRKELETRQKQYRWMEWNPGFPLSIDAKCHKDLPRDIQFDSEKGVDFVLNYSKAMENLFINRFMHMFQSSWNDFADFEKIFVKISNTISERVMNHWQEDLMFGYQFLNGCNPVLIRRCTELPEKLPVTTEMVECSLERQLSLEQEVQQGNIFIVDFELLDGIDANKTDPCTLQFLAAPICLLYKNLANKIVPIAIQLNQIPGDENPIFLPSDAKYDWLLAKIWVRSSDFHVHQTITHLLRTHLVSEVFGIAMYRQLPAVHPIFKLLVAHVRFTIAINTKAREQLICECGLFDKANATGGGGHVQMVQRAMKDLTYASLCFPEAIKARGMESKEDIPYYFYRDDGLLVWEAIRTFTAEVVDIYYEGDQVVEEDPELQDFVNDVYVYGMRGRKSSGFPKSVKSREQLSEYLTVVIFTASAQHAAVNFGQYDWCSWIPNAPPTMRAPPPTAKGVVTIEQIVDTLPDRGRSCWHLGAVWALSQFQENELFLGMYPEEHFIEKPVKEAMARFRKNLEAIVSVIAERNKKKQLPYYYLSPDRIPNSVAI

[5] = Inhibitory concentration against lipid peroxidase was determined; No inhibition

Measured: Activity

O=C1CCN(c2ccccc2)N1
> 300 µM: [1] | [2] | [3]

CCOC(=O)c1c2cccccc-2c2c(OCC)oc(=O)c(C#N)c12
> 300 µM: [1] | [2] | [4] | [3] | [5]
